From US9969762B2
≈ marks a conversion by molar mass, not a printed value. Read-outs that look alike come from different tables or passages of the source.

Tests used:
[1] = system: Pectobacterium atrosepticum; test: Antibacterial activity (MIC and MBC) in TY medium; format: cell-based; conditions: 36 h of culture at 30° C.; for MIC: TY medium; for MBC: plated on TY agar
[2] = system: Agrobacterium tumefaciens; test: Antibacterial activity (MIC and MBC) in TY medium; format: cell-based; conditions: 36 h of culture at 30° C.; for MIC: TY medium; for MBC: plated on TY agar
[3] = system: Dickeya dianthicola; test: Antibacterial activity (MIC and MBC) in TY medium; format: cell-based; conditions: 36 h of culture at 30° C.; for MIC: TY medium; for MBC: plated on TY agar
[4] = system: Phytophthora infestans; test: microbe, parasite or virus in culture; format: cell-based; conditions: for Average diameters of inhibition zone: after 6 days, 20 mg in 200 μl distilled water, spots of 10 μl
[5] = system: Agrobacterium tumefaciens, Pectobacterium atrosepticum and Dickeya dianthicola bacteria; test: Antibacterial activity, summary statements over the bacteria tested; format: cell-based; conditions: for inhibition of the growth of the bacteria (in words): after 36 h of incubation at 30° C., compared with 4-NPO
[6] = system: Fusarium roseum; conditions: compound in methanol, more than 10 days at 20° C.
Description: (§1) The antifungal activity of the N-alkyl-glycosyl(di)amine derivatives of formula (I) and of the N-alkyl-glycamine derivatives of formula (III) synthesized according to the process of the invention was evaluated on two fungi: Fusarium roseum and Fusarium sambucinum.
(§2) For this, 500 μl of solution comprising the test derivative, dissolved in DMSO or methanol, are mixed with 19.5 ml of malt agar medium (Sigma aldrich) allowing the growth of these two Fusarium isolates. The test derivative is prepared in 2 ml of methanol, then mixed with 18 ml of malt agar medium (Sigma aldrich). A spot of 10 μl of culture of each Fusarium is then deposited at the center of each Petri dish. After 10 days of incubation at 20° C., the growth diameters are measured.
(§3) The range of concentrations of N-alkyl-glycosyl(di)amine derivatives of formula (I) tested ranges from 0.1 to 25 μmol/ml.
(§4) The Fusarium growth on media containing the various molecules is compared with that obtained only with DMSO or methanol.
(§5) The same antifungal evaluation protocol as the one previously described with the compound Ij was applied for other N-alkyl-glycosyl(di)amine derivatives of formula (I) and N-alkyl-glycamine derivatives of formula (III) at concentrations ranging from 1 to 20 μmol/ml.
(§6) 2 ml of solution comprising the test compound dissolved in methanol are mixed with 18 ml of agar malt medium (Sigma aldrich) allowing the growth of these two Fusarium isolates. A spot of 10 μl of culture of each Fusarium is then deposited at the center of each Petri dish. After more than 10 days of incubation at 20° C., the growth diameters are measured.

[7] = system: Fusarium sambucinum; conditions: compound in methanol, more than 10 days at 20° C.
Description: as §1, §2, §3, §4, §5, §6

| Compound | MIC [1] | MBC [1] | MIC [2] | MBC [2] | MIC [3] | MBC [3] | Average diameters of inhibition zone [4] | bactericidal activity (in words) [5] | inhibition of the growth of the bacteria (in words) [5] | Inhibition of the growth of the Fusarium roseum fungi ([6]; 1 μmol/ml) | Inhibition of the growth of the Fusarium roseum fungi ([6]; 2.5 μmol/ml) | Inhibition of the growth of the Fusarium roseum fungi ([6]; 5 μmol/ml) | Inhibition of the growth of the Fusarium sambucinum fungi ([7]; 1 μmol/ml) | Inhibition of the growth of the Fusarium sambucinum fungi ([7]; 2.5 μmol/ml) | Inhibition of the growth of the Fusarium sambucinum fungi ([7]; 5 μmol/ml) | other results |
| --- | --- | --- | --- | --- | --- | --- | --- | --- | --- | --- | --- | --- | --- | --- | --- | --- |
| CCCCCCCCCCCCNCC(O)C(O)C(O)C(C)O (stereo not shown) [compound IIIa] | 32 µg/mL (≈ 95.9 µM) | 32 µg/mL (≈ 95.9 µM) | 16 µg/mL (≈ 48 µM) | 62.5 µg/mL (≈ 187 µM) | 62.5 µg/mL (≈ 187 µM) | 62.5 µg/mL (≈ 187 µM) | 24 mm | showed a bactericidal activity | inhibition of the growth of the bacteria was observed | 100% | 100% | 100% | 100% | 100% | 100% |  |
| CCCCCCCCCCCCNCC(O)C(O)C(O)C(O)CO (stereo not shown) [compound IIIb] | 32 µg/mL (≈ 91.6 µM) | 32 µg/mL (≈ 91.6 µM) | 16 µg/mL (≈ 45.8 µM) | 32 µg/mL (≈ 91.6 µM) | 62.5 µg/mL (≈ 179 µM) | 62.5 µg/mL (≈ 179 µM) | 20 mm | showed a bactericidal activity | inhibition of the growth of the bacteria was observed | 100% | 100% | 100% | 96% | 96% | 100% |  |
| CCCCCCCCCCCCNCC(O)C(O)C(O)C(O)CO (stereo not shown) [compound IIIc] | 62.5 µg/mL (≈ 179 µM) | 62.5 µg/mL (≈ 179 µM) | >500 µg/mL | >500 µg/mL | >500 µg/mL | >500 µg/mL | 18 mm | showed a bactericidal activity | inhibition of the growth of the bacteria was observed | 100% | 100% | 100% | 98% | 100% | 100% |  |
| CCCCCNC1OC(C)[C@H](O)C(O)C1O (stereo partly shown) [compound Ie] | 16 µg/mL (≈ 68.6 µM) | 16 µg/mL (≈ 68.6 µM) | 4 µg/mL (≈ 17.1 µM) | 8 µg/mL (≈ 34.3 µM) |  |  |  | showed a bactericidal activity | inhibition of the growth of the bacteria was observed | 94% | 96% | 100% | 95% | 96% | 100% | MIC ([3]; Dickeya dianthicola, read-out: MIC): 16 µg/mL (≈ 68.6 µM); MBC ([3]; Dickeya dianthicola, read-out: MBC): 16 µg/mL (≈ 68.6 µM); zone of inhibition at 20000 µg/disc ([4]; Phytophthora infestans, 144 h, read-out: Average diameters of inhibition zone): 21 mm; Inhibition of the growth of the Fusarium roseum fungi ([6]; 10 μmol/ml): 100%; Inhibition of the growth of the Fusarium roseum fungi ([6]; 20 μmol/ml): 100%; Inhibition of the growth of the Fusarium sambucinum fungi ([7]; 10 μmol/ml): 100%; Inhibition of the growth of the Fusarium sambucinum fungi ([7]; 20 μmol/ml): 100% |
